Measured values taken from patent US20190359645A1, “2'3'-CYCLIC DINUCLEOTIDES COMPRISING CARBOCYCLIC NUCLEOTIDE” (Institute of Organic Chemistry and Biochemistry ASCR, V.V.I., priority 2018, published 2019).

Biological target: T1, AQ STING (G230A-R293Q) (Homo sapiens, UniProt Q86WV6, G230A/H232R/R293Q)
T1 construct: truncated human WT STING or AQ STING (amino acid residues 140-343); 8xHis (N, cleaved yes); SUMO (N, cleaved yes); made in house; host or cells: E. coli Rosetta-gami B (DE3)
Test: Differential scanning fluorimetry (DSF) with AQ STING
Type: binding
Conditions: read-out: DSF ΔTm AQ STING
Source text: Both WT and AQ human STING (G230A-R^293Q) cDNA were amplified by the use of PCR (Phusion® High-Fidelity DNA Polymerase, cat. # M0530S, NEB, Ipswich, USA) using oligonucleotides hSTING140-BamH-For ([…]) (SEQ ID NO:5) and hSTING379-Not-Rev3 ([…]) (SEQ ID NO:6) from pUNOI-hSTING-WT (cat. # punol-hstingwt, InvivoGen, San Diego, USA) and pUNO1-hSTING-HAQ plasmids (punol-hsting-haq, InvivoGen, San Diego, USA). Purified PCR products were cleaved with restriction enzymes BamHI (cat. # R^0136S, NEB, Ipswich, USA) and NotI (cat. # R^0189S, NEB, Ipswich, USA) and cloned into the pSUMO vector linearized with the identical enzymes. Plasmid pSUMO was created by introducing 8-His-SUMO sequence between NdeI and BamHI sites of pHis-parallel2 plasmid (Clontech, Moutain View, USA). pSUMO-STING WT or pSUMO-STING AQ plasmids thus encoded truncated human WT STING or AQ STING (amino acid residues 140-343) with N-terminal 8×His and SUMO tag.
The recombinant WT STING and AQ STING proteins were overexpressed in Rosetta-gami B (DE3) competent cells (cat. #71136-3, Merck Millipore, Billerica, USA). Bacterial pellets were re-suspended in ice-cold lysis buffer containing 50 mmol·l^−1 TrisCl (cat. # T1503, Sigma Aldrich, Czech Republic) pH 8.0, 300 mmol·l^−1 NaCl, 3 mmol·l^−1 (3-mercaptoethanol (cat. # M6250, Sigma Aldrich, Czech Republic), 10% glycerol (cat. #G5516, Sigma Aldrich, Czech Republic) and 20 mmol·l^−1 imidazole (cat. #15513, Sigma Aldrich, Czech Republic) using Dounce homogenizer. DNase I (cat. # D5025, Sigma Aldrich, Czech Republic) and RNase A (cat. # R^6513, Sigma Aldrich, Czech Republic) were added (final concentration 50 μg/ml) together with MgCl2 (final concentration 5 mmol·l^−1) to the homogenate and bacteria were lysed using French Press G-M™ High-Pressure Cell Press Homogenizer (1500 psi, 3 cycles). Lysate was spun 30,000 g for 20 minutes and supernatant was gently stirred with Ni-NTA resin (cat. #745400.25 Macherey-Nagel, Duren, Germany) for 30 minutes. The resin was poured into a chromatography column, washed with 50 ml buffer A (50 mmol·l^−1 TrisCl (pH 8.0), 800 mmol·l^−1 NaCl, 3 mmol·l^−1β-mercaptoethanol; 10% glycerol; 20 mmol·l^−1 imidazole) and 8-His-SUMO tagged STING proteins were eluted with 15 ml buffer A containing 300 mmol·l^−1 imidazole. The eluted proteins were cleaved with recombinant SUMO protease (80 pig/ml of protein solution, cat. #12588018, ThermoFisher, Waltham, USA). The proteins were further purified by size exclusion chromatography using HiLoad 16/60 Superdex 75 (cat. #28989333, GE Healthcare Bio-Sciences, Pittsburgh, USA) in 50 mmol·l^−1 Tris C1 buffer pH 7.4 containing 150 mmol·l^−1 NaCl, and 10% glycerol. Proteins were concentrated with Amicon® Ultra-15 10 K device (cat. # UFC901008, Merck Millipore, Billerica, USA) and flash frozen in liquid N2.
WT and AQ allelic forms of STING protein were diluted to the final concentration 0.1 mg/ml in 100 mmol·l^−1 TrisCl buffer pH 7.4 containing, 150 mmol·l^−1 NaCl, 1:500 SYPRO Orange (cat. # S6650, ThermoFisher, Waltham, USA) and 150 μM CDN or water. 20 μL solutions of the reaction mixtures were pipetted in triplicates into 96 well optical reaction plates and thermal denaturation of samples were performed on real time PCR cycler (LightCycler® 480 Instrument II—Roche, Basel, Switzerland). The first derivative of the thermal denaturation curves was performed to calculate denaturing temperatures of STING-CDN complexes and STING apoproteins. The thermal shift for each CDN was calculated by subtracting the average denaturing temperature of STING apoprotein from the average denaturing temperature of STING CDN complex.

T1 sequence (Q86WV6 140-343 G230A/H232R/R293Q): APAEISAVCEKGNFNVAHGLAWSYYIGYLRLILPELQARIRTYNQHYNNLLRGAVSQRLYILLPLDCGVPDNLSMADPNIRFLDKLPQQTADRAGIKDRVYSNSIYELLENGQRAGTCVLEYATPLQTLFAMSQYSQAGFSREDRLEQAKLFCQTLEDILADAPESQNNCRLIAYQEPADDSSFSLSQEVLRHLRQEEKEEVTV

| SMILES | ΔTm at 150 µM [°C] |
| --- | --- |
| Nc1nc2c(ncn2[C@@H]2C[C@@H]3COP(=O)(O)OC4C(O)[C@H](n5cnc6c(N)ncnc65)O[C@@H]4COP(O)(=S)OC2C3O)c(=O)[nH]1 (stereo partly drawn) [Compound 101, 2-amino-9-[(6R,8R,15R,17R)-8-(6-amino-9H-purin-9-yl)-3,9,12,18-tetrahydroxy-12-oxo-3-sulfanylidene-2,4,7,11,13-pentaoxa-3λ^5,12λ^5-diphosphatricyclo[13.2.1.0^6,10]octadecan-17-yl]-6,9-dihydro-1H-purin-6-one] | 19.8 |

Same assay, conditions: thermal shift, truncated human AQ STING 0.1 mg/ml, 150 μM CDN

| SMILES | DSF ΔTm AQ STING [°C] |
| --- | --- |
| Nc1ncnc2c1ncn2[C@@H]1O[C@@H]2COP(=O)(S)O[C@@H]3[C@H](F)[C@@H](COP(=O)(S)O[C@H]2[C@H]1F)C[C@H]3n1cnc2c(=O)[nH]cnc21 (single isomer, unassigned) [Compound 128b] | 13.8 |
| Nc1ncnc2c1ncn2[C@@H]1O[C@@H]2COP(=O)(S)O[C@@H]3[C@H](F)[C@@H](COP(=O)(S)O[C@H]2[C@H]1F)C[C@H]3n1cnc2c(=O)[nH]cnc21 (single isomer, unassigned) [Compound 128c] | 18.2 |
| Nc1ncnc2c1ncn2[C@@H]1O[C@@H]2COP(=O)(S)O[C@@H]3[C@H](F)[C@@H](COP(=O)(S)O[C@H]2[C@H]1F)C[C@H]3n1cnc2c(=O)[nH]cnc21 (single isomer, unassigned) [Compound 128d] | 21.3 |

Same assay, conditions: thermal shift, truncated human AQ STING 0.1 mg/ml, 150 μM CDN; read-out: DSF ΔTm AQ STING

| SMILES | ΔTm at 150 µM [°C] |
| --- | --- |
| Nc1ncnc2c1ncn2[C@@H]1O[C@@H]2COP(=O)(S)O[C@@H]3[C@H](F)[C@@H](COP(=O)(S)O[C@H]2[C@H]1F)C[C@H]3n1cnc2c(=O)[nH]cnc21 (single isomer, unassigned) [Compound 128a] | 16.5 |
| Nc1nc2c(ncn2[C@@H]2C[C@@H]3COP(=O)(O)OC4C(O)[C@H](n5cnc6c(N)ncnc65)O[C@@H]4COP(=O)(O)OC2C3O)c(=O)[nH]1 (stereo partly drawn) [Compound 102, (6R,8R,15R,17R)-17-(2-amino-6-oxo-6,9-dihydro-1H-purin-9-yl)-8-(6-amino-9H-purin-9-yl)-3,9,12,18-tetrahydroxy-2,4,7,11,13-pentaoxa-3λ^5,12λ^5-diphosphatricyclo[13.2.1.0^6,10]octadecane-3,12-dione] | 19.8 |
| Nc1nc2c(ncn2[C@@H]2C[C@@H]3COP(=O)(O)OC4C(O)[C@H](n5cnc6c(N)nc(F)nc65)O[C@@H]4COP(=O)(O)OC2C3O)c(=O)[nH]1 (stereo partly drawn) [Compound 103, (6R,8R,15R,17R)-8-(6-amino-2-fluoro-9H-purin-9-yl)-17-(2-amino-6-oxo-6,9-dihydro-1H-purin-9-yl)-3,9,12,18-tetrahydroxy-2,4,7,11,13-pentaoxa-3λ^5,12λ^5-diphosphatricyclo[13.2.1.0^6,10]octadecane-3,12-dione] | 15.2 |
| Nc1nc2c(ncn2[C@@H]2C[C@@H]3COP(=O)(O)OC4C(O)[C@H](n5cnc6c(=O)[nH]cnc65)O[C@@H]4COP(=O)(O)OC2C3O)c(=O)[nH]1 (stereo partly drawn) [Compound 104, (6R,8R,15R,17R)-17-(2-amino-6-oxo-6,9-dihydro-1H-purin-9-yl)-3,9,12,18-tetrahydroxy-8-(6-oxo-6,9-dihydro-1H-purin-9-yl)-2,4,7,11,13-pentaoxa-3λ^5,12λ^5-diphosphatricyclo[13.2.1.0^6,10]octadecane-3,12-dione] | 13.3 |
| Nc1nc(N)c2ncn([C@@H]3O[C@@H]4COP(=O)(O)OC5C(O)[C@@H](COP(=O)(O)OC4C3O)C[C@H]5n3cnc4c(=O)[nH]c(N)nc43)c2n1 (stereo partly drawn) [Compound 105, (6R,8R,15R,17R)-17-(2-amino-6-oxo-6,9-dihydro-1H-purin-9-yl)-8-(2,6-diamino-9H-purin-9-yl)-3,9,12,18-tetrahydroxy-2,4,7,11,13-pentaoxa-3λ^5,12λ^5-diphosphatricyclo[13.2.1.0^6,10]octadecane-3,12-dione] | 13.2 |
| Nc1ncc2ncn([C@@H]3O[C@@H]4COP(=O)(O)OC5C(O)[C@@H](COP(=O)(O)OC4C3O)C[C@H]5n3cnc4c(=O)[nH]c(N)nc43)c2n1 (stereo partly drawn) [Compound 106, (6R,8R,15R,17R)-17-(2-amino-6-oxo-6,9-dihydro-1H-purin-9-yl)-8-(2-amino-9H-purin-9-yl)-3,9,12,18-tetrahydroxy-2,4,7,11,13-pentaoxa-3λ^5,12λ^5-diphosphatricyclo[13.2.1.0^6,10]octadecane-3,12-dione] | 13.8 |
| Nc1nc2c(ncn2[C@@H]2C[C@@H]3COP(=O)(O)OC4C(O)[C@H](n5cnc6c(S)ncnc65)O[C@@H]4COP(=O)(O)OC2C3O)c(=O)[nH]1 (stereo partly drawn) [Compound 107, (6R,8R,15R,17R)-17-(2-amino-6-oxo-6,9-dihydro-1H-purin-9-yl)-3,9,12,18-tetrahydroxy-8-(6-sulfanyl-9H-purin-9-yl)-2,4,7,11,13-pentaoxa-3λ^5,12λ^5-diphosphatricyclo[13.2.1.0^6,10]octadecane-3,12-dione] | 7.9 |
| CNc1ncnc2c1ncn2[C@@H]1O[C@@H]2COP(=O)(O)OC3C(O)[C@@H](COP(=O)(O)OC2C1O)C[C@H]3n1cnc2c(=O)[nH]c(N)nc21 (stereo partly drawn) [Compound 108, (6R,8R,15R,17R)-17-(2-amino-6-oxo-6,9-dihydro-1H-purin-9-yl)-3,9,12,18-tetrahydroxy-8-[6-(methylamino)-9H-purin-9-yl]-2,4,7,11,13-pentaoxa-3λ^5,12λ^5-diphosphatricyclo[13.2.1.0^6,10]octadecane-3,12-dione] | 12.5 |
| Nc1nc2c(ncn2[C@@H]2C[C@@H]3COP(=O)(O)OC4C(N)[C@H](n5cnc6c(N)ncnc65)O[C@@H]4COP(=O)(O)OC2C3O)c(=O)[nH]1 (stereo partly drawn) [Compound 109, (6R,8R,15R,17R)-9-amino-17-(2-amino-6-oxo-6,9-dihydro-1H-purin-9-yl)-8-(6-amino-9H-purin-9-yl)-3,12,18-trihydroxy-2,4,7,11,13-pentaoxa-3λ^5,12λ^5-diphosphatricyclo[13.2.1.0^6,10]octadecane-3,12-dione] | 12.8 |
| CSc1ncnc2c1ncn2[C@@H]1O[C@@H]2COP(=O)(O)OC3C(O)[C@@H](COP(=O)(O)OC2C1O)C[C@H]3n1cnc2c(=O)[nH]c(N)nc21 (stereo partly drawn) [Compound 110, (6R,8R,15R,17R)-17-(2-amino-6-oxo-6,9-dihydro-1H-purin-9-yl)-3,9,12,18-tetrahydroxy-8-[6-(methylsulfanyl)-9H-purin-9-yl]-2,4,7,11,13-pentaoxa-3λ^5,12λ^5-diphosphatricyclo[13.2.1.0^6,10]octadecane-3,12-dione] | 10.1 |
| Nc1nc2c(ncn2[C@@H]2C[C@@H]3COP(=O)(O)OC4C(F)[C@H](n5cnc6c(N)nc(F)nc65)O[C@@H]4COP(=O)(O)OC2C3O)c(=O)[nH]1 (stereo partly drawn) [Compound 111, (6R,8R,15R,17R)-8-(6-amino-2-fluoro-9H-purin-9-yl)-17-(2-amino-6-oxo-6,9-dihydro-1H-purin-9-yl)-9-fluoro-3,12,18-trihydroxy-2,4,7,11,13-pentaoxa-3λ^5,12λ^5-diphosphatricyclo[13.2.1.0^6,10]octadecane-3,12-dione] | 13 |
